Assays:
[1] = tested on: MDA-MB-231 breast cancer cells; assay: MDA-MB-231 cell growth inhibition / cytotoxicity assay, incl. pH 6.2 vs pH 7.4; conditions: for cell growth inhibitory activity / pH-dependent cytotoxicity: MDA-MB-231 cells; for cell growth inhibitory activity: FIG. 3 legend; for IC50: Homo sapiens; for pH-dependent cytotoxicity: pH 6.2 over pH 7.4
EMT-6 cells = assay: EMT-6 cytotoxicity at pH 6.2 vs pH 7.4; type: cell-based

Compound	cell growth inhibitory activity [1]	IC50 ([1]; MDA-MB-231, pH 6.2)	IC50 ([1]; MDA-MB-231, pH 7.4)	pH-dependent cytotoxicity [1]	IC50 (EMT-6 cells; Mus musculus, EMT6, tumor pH 6.2)	toxicity in this assay (EMT-6 cells; normal physiological pH 7.4)
O=P1(N(CCCl)CCCl)NCCCO1 (centres unmarked) [Cyclophosphamide, reference compound]	remains inactive					
NP(=O)(OCCSSCCCc1c(F)c(F)c(O)c(F)c1F)N(CCCl)CCCl (centres unmarked) [YU252213]	shows cell growth inhibitory activity	41.4 µM	> 100 µM	preferential cytotoxicity in acidic conditions		
O=C(Nc1ccc(N(CCCl)CCCl)cc1)OCCSSCCCc1c(F)c(F)c(O)c(F)c1F [YU252353]				preferential cytotoxicity in acidic conditions	28.7 µM	no detectable toxicity

Reference: patent US20250228950A1 (priority 2017, published 2025)
